One series has as its system mushroom tyrosinase. The experiment in a line: Tyrosinase inhibitory activity (L-DOPA, DOPA chrome at 475 nm). The class given is biochemical. The conditions noted are these: for tyrosinase inhibitory activity: Example 1, FIG. 1; for Inhibitory Activity (%): Example 2, Table 2.
For series [1], the system named is MNT-1 cells. The experiment in a line: Melanin production in MNT-1 cells (absorbance 490 nm). Format: cell-based, human. The note with it: MNT-1, 72 hours. On the procedure:
The melanin inhibitory effects of each substance were confirmed through an analysis of melanin production following treatment with procyanidin A2, quercetin, and their combination. Specifically, MNT-1 cells (human-derived melanoma skin cells) were treated for 72 hours with procyanidin A2, quercetin, and the combination at the maximum concentration without cytotoxicity according to Table 5. The negative control group was untreated, and arbutin, a tyrosinase inhibitor, was used as the positive control. Afterward, the media was removed, the cell bodies were dissolved with 1 N NaOH, heated at 95° C. for 5 minutes, and the absorbance was measured at 490 nm using a microplate reader (Molecular Devices, Sunnyvale, CA, USA).

For series [2], the system named is LC3-II, ATG5, Beclin-1, p62, LC3-I in MNT-1 cells. Briefly: Autophagy activity-related protein expression (western blot). Format: cell-based, human. The conditions noted are these: for expression levels of LC3-II, ATG5, and Beclin-1: MNT-1, FIG. 6. The method, then: (§1) Specifically, after treating with procyanidin A2, quercetin, and the combination, MNT-1 cells were washed twice in ice-cold PBS and lysed in ice-cold RIPA buffer (Sigma-Aldrich). Protein concentration was measured using a Bicinchoninic acid (BCA) protein assay kit (Pierce, Rockford, IL, USA), and 35 μg of protein was separated using sodium dodecyl sulfate-polyacrylamide gel electrophoresis (10%) and transferred to a nitrocellulose membrane (Whatman, Dassel, Germany). The membrane was blocked in 5% non-fat milk in TBST buffer (1:5000) and then treated with primary (1:1000) and secondary antibodies (Table 6). Protein bands were detected using SuperSignal West Femto maximum sensitivity substrate (Thermo Fisher Scientific, Rockford, IL, USA) and quantified using Image Lab™ software (version 5.2.1).
LC3-II, ATG5, and Beclin-1 are involved in the formation of autophagosomes and activate autophagy. In contrast, p62 and LC3-I, which show characteristics of being decomposed during autophagosome formation, decrease when autophagy activate. To verify the autophagy activity of procyanidin A2, quercetin, and their combination, the expression levels of autophagy-activity-related proteins were analyzed. The specific method for this experiment, except for using Table 8 for antibodies, was conducted in the same manner as the method in Example 5 for the analysis of melanin synthesis-related protein expression.

Series [3] deals with MNT-1 cells. Briefly: Cell viability / cytotoxicity, MTT assay. Format: cell-based, human. The conditions noted are these: MNT-1, 72 hours. The method, then: To examine the cell toxicity of procyanidin A2, quercetin, and their combination, a cell viability analysis was conducted. Specifically, cell survival and cytotoxicity were measured using the 3-(4,5-dimethylthiazol-2-yl)-2,5-diphenyltetrazoliumbromide (MTT) Assay. MNT-1 cells were seeded in a 96 well plate at 1×10^5 cells/well and cultured for 24 hours in a 37° C., 5% CO2 incubator. After that, each compound was treated according to Table 4 and cultured for 72 hours. Then, MTT solution at a final concentration of 0.5 mg/ml was added and reacted for 4 hours at 37° C. The media containing MTT solution was removed, and 100 μl of DMSO was treated in each well to dissolve the formazan precipitate formed in reaction with the living cells. Absorbance was measured at 550 nm using an ELISA reader (CLARIOstar Plus, BMG LABTECH, Germany).
In general terms: Tetrazolium dyes change colour on reduction, which living cells bring about.

For series [4], the system named is tyrosinase, TRP-1, TRP-2, MITF in MNT-1 cells. The experiment in a line: Melanin synthesis-related protein expression (western blot). The conditions noted are these: MNT-1, FIG. 5. The class given is cell-based, human. The method, then:
as §1
A general note: In western blotting, separated proteins are transferred to a membrane and probed.

Setting [5] is: procyanidin A2 only, 50 μM, MNT-1.

Structures are written as SMILES.

Experimental for mushroom tyrosinase: In the reaction mixture, 0.5 ml of 0.175 M sodium phosphate buffer (pH 6.8), 0.2 ml of a substrate solution containing 10 mM L-DOPA, and 0.1 ml of the sample solution were mixed, followed by the addition of 0.2 ml of mushroom tyrosinase (110 unit/ml). The reaction was carried out for 2 minutes at 25° C., and the DOPA chrome produced in the reaction mixture was measured at 475 nm. Tyrosinase inhibitory activity was expressed as the percentage reduction in absorbance compared to the control group without sample solution.

As for `OC[C@H]1O[C@@H](Oc2ccc(O)cc2)[C@H](O)[C@@H](O)[C@@H]1O` [arbutin, reference compound], the tyrosinase inhibition in the series on mushroom tyrosinase (300 μM, positive control, Example 1) is 58.79%. For the same molecule, the “melanin production reduced by (NT set to 100%)” value with MNT-1 cells [1] (arbutin 1 mM) was “about 57.1%”.

In the case of `Oc1cc(O)c2c(c1)O[C@@]1(c3ccc(O)c(O)c3)Oc3cc(O)c4c(c3[C@@H]2[C@H]1O)O[C@H](c1ccc(O)c(O)c1)[C@H](O)C4` [procyanidin A2], the “expression levels of LC3-II, ATG5, and Beclin-1” value in series [2] (50 μM) is “little to no significant change or only slight increases”. In series [2] (setting [5]), the “ATG5 and Beclin-1 expression” value was “slight increase”; the P62 expression entry was “slight increase”; the “ratio of LC3-II to LC3-I” value is “remained similar to the control group”. Besides, the cytotoxicity result in the series with MNT-1 cells [3] (100 μM) is “toxicity”. For the same molecule, in the series on MNT-1 cells [3] (concentrations below 50 μM), the cytotoxicity entry is given as “no cytotoxicity”. The “protein expression of tyrosinase, TRP-1, and TRP-2” value in series [4] (50 μM) is reported as “reduction”. Further, in the series with mushroom tyrosinase (2.5 μM), the tyrosinase inhibitory activity is recorded as 29.82% and the “Inhibitory Activity (%)” value came to 30.27%. Also, in the series on mushroom tyrosinase (5 μM), the tyrosinase inhibitory activity stood at 51.12% and the “Inhibitory Activity (%)” value amounted to 49.04%. The molecule also returned a tyrosinase inhibitory activity with mushroom tyrosinase (10 μM) of 68.81%. Moreover, the “melanin production reduced to (NT set to 100%)” value in the series on MNT-1 cells [1] (50 μM) was determined as 72.3%.

For the molecule `O=c1c(O)c(-c2ccc(O)c(O)c2)oc2cc(O)cc(O)c12` [quercetin, 2-(3,4-dihydroxyphenyl)-3,5,7-trihydroxy-4H-chromen-4-one], the “expression levels of LC3-II, ATG5, and Beclin-1” value in series [2] (20 μM) is given as “little to no significant change or only slight increases”. For the same molecule, the cytotoxicity entry with MNT-1 cells [3] (approximately 25 μM and below) was “no cytotoxicity”. The “protein expression of tyrosinase, TRP-1, and TRP-2” value in series [4] (20 μM) was “reduction”. In addition, the tyrosinase inhibitory activity in the series with mushroom tyrosinase (2.5 μM) worked out at 17.65%; in the series with mushroom tyrosinase (5 μM), 32.08%; in the series on mushroom tyrosinase (10 μM) it was 49.44%. Besides, the “Inhibitory Activity (%)” value in the series with mushroom tyrosinase (2.5 μM) is recorded as 17.05%; with mushroom tyrosinase (5 μM), 31.61%. In addition, in the series on MNT-1 cells [1] (20 μM), the “melanin production reduced to (NT set to 100%)” value is given as 64.5%.
